# Test system: Vaccinia virus
# Assay: Antiviral activity against Vaccinia virus-induced cytopathogenicity in HEL cells
# Format: functional
# Conditions: Orthopoxvirus vaccinia
row,SMILES,MIC
1,C=Cc1cn(C/C=C2\OC(=O)C(OCc3ccccc3)=C2OCc2ccccc2)c(=O)[nH]c1=O,> 18 µM
2,O=C1O/C(=C\Cn2cc(C#Cc3ccccc3)c(=O)[nH]c2=O)C(O)=C1O,4 µM
3,C#Cc1cn(C/C=C2\OC(=O)C(O)=C2O)c(=O)[nH]c1=O,4 µM
4,O=C1O/C(=C\Cn2cc(-c3ccco3)c(=O)[nH]c2=O)C(O)=C1O,> 100 µM
5,C#Cc1cn(C/C=C2\OC(=O)C(OCc3ccccc3)=C2OCc2ccccc2)c(=O)[nH]c1=O,> 18 µM
6,O=C1O/C(=C\Cn2cc(-c3ccccc3)c(=O)[nH]c2=O)C(O)=C1O,> 100 µM
7,CC(C)=CCc1cn(C/C=C2\OC(=O)C(OCc3ccccc3)=C2OCc2ccccc2)c(=O)[nH]c1=O,4 µM
8,O=C1O/C(=C\Cn2cc(-c3cccs3)c(=O)[nH]c2=O)C(O)=C1O,> 100 µM

# Test system: Vaccinia virus
# Assay: Antiviral activity against Vaccinia virus-induced cytopathogenicity in E6SM cells
# Format: functional
# Conditions: Orthopoxvirus vaccinia
row,SMILES,MIC
1,O=C1O/C(=C\Cn2cc(-c3ccccc3)c(=O)[nH]c2=O)C(OCc2ccccc2)=C1OCc1ccccc1,95 µM
2,O=C1O/C(=C(\Br)Cn2c(Br)c(/C=C/Br)c(=O)[nH]c2=O)C(OCc2ccccc2)=C1OCc1ccccc1,> 116 µM
3,CC#Cc1cn(C/C=C2\OC(=O)C(OCc3ccccc3)=C2OCc2ccccc2)c(=O)[nH]c1=O,> 0.4 µM
4,O=C1O/C(=C\Cn2cc(-c3cccs3)c(=O)[nH]c2=O)C(OCc2ccccc2)=C1OCc1ccccc1,> 156 µM
5,O=C1O/C(=C\Cn2cc(-c3ccc(Cl)o3)c(=O)[nH]c2=O)C(OCc2ccccc2)=C1OCc1ccccc1,> 150 µM
6,C=Cc1cn(C/C=C2\OC(=O)C(O)=C2O)c(=O)[nH]c1=O,> 144 µM
7,O=C1O/C(=C\Cn2cc(C#Cc3ccccc3)c(=O)[nH]c2=O)C(OCc2ccccc2)=C1OCc1ccccc1,> 40 µM
8,O=C1O/C(=C\Cn2cc(/C=C/Br)c(=O)[nH]c2=O)C(OCc2ccccc2)=C1OCc1ccccc1,> 150 µM
9,C=CCc1cn(C/C=C2\OC(=O)C(OCc3ccccc3)=C2OCc2ccccc2)c(=O)[nH]c1=O,> 8 µM
10,O=C1O/C(=C\Cn2cc(-c3ccco3)c(=O)[nH]c2=O)C(OCc2ccccc2)=C1OCc1ccccc1,> 6.4 µM
11,O=C1O/C(=C\Cn2cc(-c3ccc(Br)o3)c(=O)[nH]c2=O)C(OCc2ccccc2)=C1OCc1ccccc1,> 70 µM
12,C=C=Cc1cn(C/C=C2\OC(=O)C(OCc3ccccc3)=C2OCc2ccccc2)c(=O)[nH]c1=O,> 8 µM
13,Nc1nc2c(ncn2COCCO)c(=O)[nH]1 [ACYCLOVIR],300 µM
14,O=c1[nH]c(=O)n([C@H]2C[C@H](O)[C@@H](CO)O2)cc1/C=C/Br [BRIVUDINE],2.4 µM
15,Nc1nc2c(ncn2COC(CO)CO)c(=O)[nH]1 [GANCICLOVIR],60 µM
16,NC(=O)c1ncn([C@@H]2O[C@H](CO)[C@@H](O)[C@H]2O)n1 [RIBAVIRIN],100 µM

# From ChEMBL document CHEMBL1144557, “The novel C-5 aryl, alkenyl, and alkynyl substituted uracil derivatives of L-ascorbic acid: synthesis, cytostatic, and antiviral activity evaluations” (Bioorg Med Chem, 2007)
